Results as given in patent publication US6403788B1, “Non-genotoxic metalloporphyrins as synthetic catalytic scavengers of reactive oxygen species” (Eukarion, Inc., priority 2000, dated 2002).

Tests used:
[1] = tested on: ΦX 174 DNA Plasmid (Form I); test: Cleavage of ΦX 174 DNA plasmid (form I), compound alone or activated with KHSO5; format: biochemical, phage ΦX 174; conditions: for S (single-strand breaks per DNA molecule) / form % I / form % II / form % III: DNA 3.5 nM
Description: The DNA cleavage activity was quantified in terms of number of single-strand breaks per DNA molecule according to the equation […], Io=% form I (supercoiled DNA) in the DNA control, and I=% form I in the experiment (see Bernadou et al, Biochemistry, 28: 7268-7275, (1989)). This assay is very sensitive and is able to detect very low levels of DNA activity. S values less than S=1.0 are indicative of very low DNA cleavage activity when the compounds are at a concentration of equal to or less than 1000 nM and KHSO5 is present at a concentration of equal to or less than 100 μM.
ΦX 174 DNA digestion conditions for standard experiments were as follows: commercially available DNA was diluted to 50 μg/mL in phosphate buffer (10 mM, pH 7.5). The reaction involved 5 μL of ΦX 174 DNA (50 μg/mL, 74.8 μM in base pairs), 5 μL of 40 mM phosphate buffer, pH 7.5 with 400 mM NaCl, 5 μL of metalloporphyrin in double-distilled water or 5 μL of iron-bleomycin complex in double-distilled water, and 5 μL of KHSO5 or 5 μL of H2O2 or 5 μL of ascorbate in double-distilled water. Preincubation of DNA and metalloporphyrins or iron-bleomycin complex was performed for about 15 min. The digestion time in the presence of KHSO5 was 10 min, of H2O2 was 30 min and of ascorbate was 30 min at 20° C. DNA cleavage was monitored by agarose gel electrophoresis. Reactions with KHSO5 were first quenched by 2 μL of 100 mM Hepes buffer, pH 8. In all cases, reactions were quenched by 5 μL of a stopping reagent. The stopping reagent consisted of 250 mM Hepes buffer, pH 7.4, containing 75% glycerol and 0.05% bromophenol blue. Reaction mixtures were then run in 0.8% agarose slab horizontal gel containing ethidium bromide […], at constant current (25 mA for 15h), in 89 mM Tris-borate buffer and 2.5 mM EDTA pH 8.3. Bands were located by WV light (254 nm), photographed, and quantitated by microdensitometry. The correction coefficient 1.47±0.30 was used for decreased stainability of form I DNA vs form II DNA and form III DNA.

[2] = Catalase turnover assay, total hydrogen peroxide consumed before inactivation; format: biochemical; conditions: to completion, 15.8 μM compound, 1582 μM hydrogen peroxide, 5 mM Na phosphate pH 7.4
Experimental: Catalase activity was measured by incubating the sample compound with hydrogen peroxide and determining the amount of hydrogen peroxide remaining after a period of time using a colorimetric peroxidase-coupled assay method. 10 μM sample compound and 100 μM hydrogen peroxide in 40 mM sodium phosphate pH 7.4 were incubated together at ambient temperature in a multi-well plate. After the desired reaction period had elapsed, 20 μl of peroxidase/ABTS reagent was added (peroxidase/ABTS reagent contained 100 μl of 50 mM Na phosphate, pH 7.4, 1 mg horseradish peroxidase (1310 U/mg) and […]). After five minutes, absorbance at 750 nm was determined. The amount of hydrogen peroxide remaining was calculated based on a standard curve. To compare rates of catalase reaction, the amount of hydrogen peroxide consumed at 20 minutes was determined (See table III). It was also of interest to determine the total number of turnovers completed by the compound before inactivation by hydrogen peroxide. This was assayed under similar conditions, except that 15.8 μM compound was combined with 1582 μM hydrogen peroxide in 5 mM Na phosphate, pH 7.4. Reactions were allowed to proceed to completion and then the amount of hydrogen peroxide remaining was determined as described above. Results showing […] in the turnover assay (nmoles hydrogen peroxide per nmole compound) are also shown in Table III.

[3] = tested on: CBA/J female mice, oxazolone-induced inflammatory ear edema; test: Delayed type hypersensitivity: oxazolone-induced ear edema; format: in vivo
Description: CBA/J female mice (Jackson Labs, Bar Harbor, ME) 7 weeks of age were pre-sensitized with 3% oxazolone (Sigma Chemical Co., St. Louis, Mo.) in 99.9% acetone, on the abdomen. After 8 days, the mice were challenged with 1.2% oxazolone topically on one ear to induce an inflammatory edema. Either Structural Formula V, Structural Formula IV at a dose of 7 nmoles/ear each, or ethanol, i.e. vehicle control (eight mice per study group), was applied topically to the ear immediately after the oxazolone challenge. Ear edema was measured by comparing the tissue water content (the wet weight minus the dry weight) of the challenged ear to that of the control ear. The percent edema (% water in the right ear-left ear) in the vehicle control was 6.5% and 2.1% and 3.9% for Structural Formula V and Structural Formula IV, respectively at a dose of 7 nmoles/ear.

CC[NH+](CC)CCNS(=O)(=O)c1c(C)cc(C)c(C2=C3C=CC4=[N+]3[Fe-]35[n]6c2ccc6C(c2c(C)cc(C)c(S(=O)(=O)NCC[NH+](CC)CC)c2C)=C2C=CC(=[N+]23)C(c2c(C)cc(C)c(S(=O)(=O)NCC[NH+](CC)CC)c2C)=c2ccc([n]25)=C4c2c(C)cc(C)c(S(=O)(=O)NCC[NH+](CC)CC)c2C)c1C.[Cl-].[Cl-].[Cl-].[Cl-].[Cl-] [Structural Formula V, meso-tetrakis[3-(N-(2-(N,N-diethylammonio)ethyl)aminosulfonyl)-2,4,6-trimethylphenyl]porphyrinato diaqua-iron (III) pentachloride]
S (single-strand breaks per DNA molecule) ([1]; compound 10 nM, KHSO5 100 μM): 0.01 SSBs | form % I ([1]; compound 10 nM, KHSO5 100 μM): 91% | form % II ([1]; compound 10 nM, KHSO5 100 μM): 9% | form % III ([1]; compound 10 nM, KHSO5 100 μM): 0% | S (single-strand breaks per DNA molecule) ([1]; compound 10 nM, without KHSO5): 0 SSBs | form % I ([1]; compound 10 nM, without KHSO5): 92% | form % II ([1]; compound 10 nM, without KHSO5): 8% | form % III ([1]; compound 10 nM, without KHSO5): 0% | S (single-strand breaks per DNA molecule) ([1]; compound 100 nM, KHSO5 100 μM): 0.03 SSBs | form % I ([1]; compound 100 nM, KHSO5 100 μM): 90% | form % II ([1]; compound 100 nM, KHSO5 100 μM): 10% | form % III ([1]; compound 100 nM, KHSO5 100 μM): 0% | S (single-strand breaks per DNA molecule) ([1]; compound 100 nM, without KHSO5): 0 SSBs | form % I ([1]; compound 100 nM, without KHSO5): 92% | form % II ([1]; compound 100 nM, without KHSO5): 8% | form % III ([1]; compound 100 nM, without KHSO5): 0% | S (single-strand breaks per DNA molecule) ([1]; compound 1 μM, KHSO5 100 μM): 0.07 SSBs | form % I ([1]; compound 1 μM, KHSO5 100 μM): 87% | form % II ([1]; compound 1 μM, KHSO5 100 μM): 13% | form % III ([1]; compound 1 μM, KHSO5 100 μM): 0% | S (single-strand breaks per DNA molecule) ([1]; compound 1 μM, without KHSO5): 0.07 SSBs | form % I ([1]; compound 1 μM, without KHSO5): 87% | form % II ([1]; compound 1 μM, without KHSO5): 13% | form % III ([1]; compound 1 μM, without KHSO5): 0% | DNA cleavage activity in oxidative medium ([1]; oxidative medium (KHSO5)): do not exhibit any significant DNA cleavage activity | CATALASE** H2O2 Consumption [2]: 36.1 nmole H2O2/nmole Structural Formula compound | effect on edema compared to vehicle ([3]; 7 nmoles/ear topically): effective in reducing the percentage of edema | percent edema (% water in the right ear-left ear) ([3]; 7 nmoles/ear topically immediately after oxazolone challenge, vehicle control 6.5%): 2.1%
